Reference: US11319322B2, “Substituted aryl ether compound, preparation method thereof, pharmaceutical composition and use thereof” (Xiamen University, priority 2017, dated 2022)

Assays:
CCDC6-RET-BaF3 = biological target: T1, CCDC6-RET-BaF3 (Homo sapiens, UniProt P07949); assay: Growth inhibition of CCDC6-RET-BaF3 cells stably transfected with kinase (MTS); format: cell-based; conditions: 48 h, read-out: CCDC6-RET (IC50/nM)
T1 construct: fused on or other part: Q16204 (Coiled-coil domain-containing protein 6)
Method: (§1) Growth inhibitory activity of compounds on cell lines stably transfected with kinase
(§2) The activity of compounds against kinase RET is evaluated by their effect of inhibiting growth of cell lines stably transfected with kinase CCDC6-RET-BaF3, KIF5B-RET-BaF3, and wild-type BaF3 (Proc. Natl. Acad. Sci. USA., 2006, 103, 3153-8.). The growth of the cell lines stably transfected with kinase CCDC6-RET-BaF3, KIF5B-RET-BaF3 depends on their kinase activity. If a compound can inhibit the activity of the kinase RET per se or the activity of the RET signaling pathway, the compound can inhibit the growth of BaF3 cells stably transfected with kinase. […] Therefore, a larger ratio between IC50 of a compound to wild-type BaF3 and IC50 of the compound to the cell lines stably transfected with kinase CCDC6-RET-BaF3, KIF5B-RET-BaF3 indicates better targeting.
(§3) The specific test method is given as follows:
(§4) 1) Medium: DMEM (Dulbecco's modified eagle medium) or RPMI 1640 (containing 10% fetal bovine serum, 100 μg/mL ampicillin, 100 μg/mL streptomycin).
(§5) 2) Reagents: MTS reaction solution (containing 2 mg/mL of MTS [3-(4,5-dimethylthiazol-2-yl)-5-(3-carboxymethoxyphenyl)-2-(4-sulfophenyl)-2H-tetrazolium, inner Salt]; 100 μg/mL PES (phenazine […])).
(§6) 3) Compound test: cells stably transfected with kinase (CCDC6-RET-BaF3, KIF5B-RET-BaF3) or wild-type BaF3 cells (2×10^4 cells/well) were incubated into a 96-well culture plate, the volume of cell culture fluid was 90 μL, and then 10 μL of the compound at each gradient concentration was added (the highest concentration was 10 μM, which was diluted stepwise by ⅓, and 8 concentration points were set in total; the system contained 0.1% DMSO (dimethyl sulfoxide)). The cell plate with uniformly mixed compound was cultured in a cell culture incubator (37° C.; 5% CO2) for 48 h, then 20 μL of MTS reaction solution was added, uniformly mixed and incubated in the cell culture incubator (37° C.; 5% CO2) for 1-4 hr, OD values at 490 nm were measured by a microplate reader (VARIOSKAN FLASH, Thermo). Three parallels were set in each group of experiments, with 0.1% (a final concentration) DMSO as a negative control, and a medium without cells or compounds as a blank control. The cell growth inhibition rate was calculated by the following formula: Cell growth inhibition rate %=1−(ODexperimental group−ODblank group)/(ODnegative group−ODblank group)×100%
(§7) 4) IC50 calculation: The semi-inhibitory concentration of the compound acting on cell growth was calculated using GradPad Prism 5 software according to the measured cell growth inhibition rate.

KIF5B-RET-BaF3 = biological target: T2, KIF5B-RET-BaF3 (Homo sapiens, UniProt P07949); assay: Growth inhibition of KIF5B-RET-BaF3 cells stably transfected with kinase (MTS); format: cell-based; conditions: 48 h, read-out: KIF5B-RET (IC50/nM)
T2 construct: fused on or other part: P33176 (Kinesin-1 heavy chain)
Method: as §1, §2, §3, §4, §5, §6, §7

T2 sequence (P07949 whole entry, change not shown, the tested form may be a part): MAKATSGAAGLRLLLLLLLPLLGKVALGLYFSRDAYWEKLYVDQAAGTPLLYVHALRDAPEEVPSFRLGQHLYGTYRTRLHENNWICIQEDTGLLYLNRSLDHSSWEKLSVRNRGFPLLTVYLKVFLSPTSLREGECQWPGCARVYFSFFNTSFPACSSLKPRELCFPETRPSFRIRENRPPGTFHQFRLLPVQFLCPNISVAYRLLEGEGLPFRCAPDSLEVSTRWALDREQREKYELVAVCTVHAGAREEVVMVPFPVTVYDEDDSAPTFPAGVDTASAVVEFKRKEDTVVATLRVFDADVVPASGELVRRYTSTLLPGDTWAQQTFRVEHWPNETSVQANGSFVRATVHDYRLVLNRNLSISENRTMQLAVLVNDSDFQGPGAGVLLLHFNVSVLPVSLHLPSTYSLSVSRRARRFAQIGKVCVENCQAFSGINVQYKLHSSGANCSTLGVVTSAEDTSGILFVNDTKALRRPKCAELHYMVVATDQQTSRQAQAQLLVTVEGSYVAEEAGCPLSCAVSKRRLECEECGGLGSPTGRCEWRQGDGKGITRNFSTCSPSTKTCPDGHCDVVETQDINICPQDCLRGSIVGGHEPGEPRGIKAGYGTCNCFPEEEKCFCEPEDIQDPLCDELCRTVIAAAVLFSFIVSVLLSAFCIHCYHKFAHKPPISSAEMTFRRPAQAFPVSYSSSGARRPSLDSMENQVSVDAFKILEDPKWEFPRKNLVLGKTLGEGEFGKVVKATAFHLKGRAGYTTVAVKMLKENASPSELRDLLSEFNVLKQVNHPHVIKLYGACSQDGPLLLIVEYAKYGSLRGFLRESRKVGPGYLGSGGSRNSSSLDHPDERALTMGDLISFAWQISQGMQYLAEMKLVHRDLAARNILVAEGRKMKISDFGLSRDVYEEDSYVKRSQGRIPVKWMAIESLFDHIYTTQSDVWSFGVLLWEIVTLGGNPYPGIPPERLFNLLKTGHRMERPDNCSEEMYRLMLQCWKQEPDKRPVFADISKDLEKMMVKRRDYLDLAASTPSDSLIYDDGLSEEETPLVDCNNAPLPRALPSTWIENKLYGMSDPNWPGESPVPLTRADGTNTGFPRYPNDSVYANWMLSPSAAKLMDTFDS
T1 sequence (P07949 whole entry, change not shown, the tested form may be a part): as above

Structure (SMILES)	GI50 (CCDC6-RET-BaF3) [nM]	GI50 (KIF5B-RET-BaF3) [nM]
CN1CCN(Cc2ccc(NC(=O)c3cc(Oc4nc(-c5ccncc5)nc5c4cnn5C)ccc3Cl)cc2C(F)(F)F)CC1 [II-o-2]	108	130
CN1CCN(Cc2cc(NC(=O)c3cccc(Oc4nc(-c5cccnc5)nc5c4cnn5C)c3)cc(C(F)(F)F)c2)CC1 [II-p-1]	268	251
CN1CCN(Cc2cc(NC(=O)c3cccc(Oc4nc(-c5ccncc5)nc5c4cnn5C)c3)cc(C(F)(F)F)c2)CC1 [II-p-2]	458	521
Cc1ccc(C(=O)Nc2cc(CN3CCN(C)CC3)cc(C(F)(F)F)c2)cc1Oc1nc(-c2cccnc2)nc2c1cnn2C [II-s-1]	264	482
Cc1ccc(C(=O)Nc2cc(CN3CCN(C)CC3)cc(C(F)(F)F)c2)cc1Oc1nc(-c2ccncc2)nc2c1cnn2C [II-s-2]	188	355
Cc1cn(-c2cc(NC(=O)c3ccc(C)c(Oc4nc(-c5ccncc5)nc5c4cnn5C)c3)cc(C(F)(F)F)c2)cn1 [II-t-2]	1570	2620
Cc1ccc(C(=O)Nc2cc(C(F)(F)F)cc(C(F)(F)F)c2)cc1Oc1nc(-c2cccnc2)nc2c1cnn2C [II-v-1]	7230	7940
CCC(=O)NCC1CCN(c2ccc(NC(=O)c3ccc(C)c(Oc4nc(-c5cccnc5)nc5c4cnn5C)c3)cc2C(F)(F)F)CC1 [II-v-7]	1200	1200
CCC(=O)NC1CCN(c2ccc(NC(=O)c3ccc(C)c(Oc4nc(-c5ccncc5)nc5c4cnn5C)c3)cc2C(F)(F)F)CC1 [II-v-8]	346	407
CCC(=O)NCC1CCN(c2ccc(NC(=O)c3ccc(C)c(Oc4nc(-c5ccncc5)nc5c4cnn5C)c3)cc2C(F)(F)F)CC1 [II-v-9]	961	934
CC(=O)NCC1CCN(c2ccc(NC(=O)c3ccc(C)c(Oc4nc(-c5cccnc5)nc5c4cnn5C)c3)cc2C(F)(F)F)CC1 [II-v-10]	492	463
CC(=O)NCC1CCN(c2ccc(NC(=O)c3ccc(C)c(Oc4nc(-c5ccncc5)nc5c4cnn5C)c3)cc2C(F)(F)F)CC1 [II-v-11]	546	646
CCC(=O)NC1CCN(c2ccc(NC(=O)c3ccc(C)c(Oc4nc(-c5cccnc5)nc5c4cnn5C)c3)cc2C(F)(F)F)CC1 [II-v-12]	364	118
CC(=O)NC1CCN(c2ccc(NC(=O)c3ccc(C)c(Oc4nc(-c5ccncc5)nc5c4cnn5C)c3)cc2C(F)(F)F)CC1 [II-v-13]	533	587
CCS(=O)(=O)NC1CCN(c2ccc(NC(=O)c3ccc(C)c(Oc4nc(-c5cccnc5)nc5c4cnn5C)c3)cc2C(F)(F)F)CC1 [II-v-14]	73.9	69.3
CCS(=O)(=O)NC1CCN(c2ccc(NC(=O)c3ccc(C)c(Oc4nc(-c5ccncc5)nc5c4cnn5C)c3)cc2C(F)(F)F)CC1 [II-v-15]	114	135
CCC(=O)NCC1CCN(c2ccc(NC(=O)c3ccc(C)c(Oc4nc(-c5cccnc5)nc5[nH]ncc45)c3)cc2C(F)(F)F)CC1 [II-v-16]	2490	3070
CCC(=O)NCC1CCN(c2ccc(NC(=O)c3ccc(C)c(Oc4nc(-c5ccncc5)nc5[nH]ncc45)c3)cc2C(F)(F)F)CC1 [II-v-17]	900	1040
CN1CCN(Cc2ccc(C(=O)Nc3cccc(Oc4nc(-c5cccnc5)nc5cc[nH]c45)c3)cc2C(F)(F)F)CC1 [III-h-1]	2810	1540
CN1CCN(Cc2ccc(C(=O)Nc3cccc(Oc4nc(-c5ccncc5)nc5cc[nH]c45)c3)cc2C(F)(F)F)CC1 [III-h-2]	16.8	16.4
CN1CCN(Cc2ccc(C(=O)Nc3cccc(Oc4nc(-c5cccnc5)nc5ccn(C)c45)c3)cc2C(F)(F)F)CC1 [III-h-3]	4100	2140
CN1CCN(Cc2ccc(C(=O)Nc3cccc(Oc4nc(-c5ccncc5)nc5ccn(C)c45)c3)cc2C(F)(F)F)CC1 [III-h-4]	195	180
